The values that follow come from patent US20250163104A1, “MACROCYCLIC IMMUNOMODULATORS” (priority 2021, published 2025).

Where a SMILES comes first, the peptide text is derived from it. Bridges are numbered along the chain shown (N, C = ends). [ ]: non-standard residue; d: D form. The star is where a group is joined. Bip = N[C@@H](Cc1ccc(-c2ccccc2)cc1)C(=O)O; Phe(4-CN) = N#Cc1ccc(C[C@H](N)C(=O)O)cc1; Ala(2-furyl) = N[C@@H](Cc1ccco1)C(=O)O; Phe(3-Me) = Cc1cccc(C[C@H](N)C(=O)O)c1; Val(3-OH) = CC(C)(O)[C@H](N)C(=O)O; aIle = CC[C@@H](C)[C@H](N)C(=O)O; 4Pal = N[C@@H](Cc1ccncc1)C(=O)O; Cha = N[C@@H](CC1CCCCC1)C(=O)O; Cit = NC(=O)NCCC[C@H](N)C(=O)O; dCha = N[C@H](CC1CCCCC1)C(=O)O; Carboxymethyl = O=C(O)C*; Orn = NCCC[C@H](N)C(=O)O; Pra = C#CC[C@H](N)C(=O)O; Dab = NCC[C@H](N)C(=O)O; Nva = CCC[C@H](N)C(=O)O; Dap = NC[C@H](N)C(=O)O; Propargyl = C#CC*

The target in the test is T1, human PD-1 / PD-L1-Ig binding on Jurkat cell line over-expressing human PD-1 (Jurkat-PD-1) (Homo sapiens, UniProt Q15116).
T1 construct: expressed in transfected cells; host or cells: Jurkat
T1 sequence (Q15116 25-288): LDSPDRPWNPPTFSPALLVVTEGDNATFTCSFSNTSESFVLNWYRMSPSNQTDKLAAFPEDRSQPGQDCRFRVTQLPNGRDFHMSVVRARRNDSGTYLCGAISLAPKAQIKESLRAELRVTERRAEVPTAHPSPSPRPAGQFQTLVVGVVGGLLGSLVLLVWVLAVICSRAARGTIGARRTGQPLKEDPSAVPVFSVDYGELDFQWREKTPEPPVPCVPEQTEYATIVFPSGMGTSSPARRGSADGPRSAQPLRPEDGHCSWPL
The test is described as follows: Jurkat-PD-1 Cell Binding High-Content Screening Assay (CBA). It counts as cell-based. The conditions noted are these: Jurkat-PD-1 cells, PE-labeled PD-L1-Ig 20 nM final; read-out: Jurkat HPD1_PDL1 IC50. In outline:
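Jurkat-hPD-1 cells in DMEM with 10% fetal calf serum receive test compound and are held at 37° C for 2 h. PE-labeled PD-L1-Ig is added at 20 nM final and left for 1 hour. Cells are then fixed and Hoechst-stained, and binding is measured by imaging.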

As for `CC[C@@H](C)[C@@H]1NC(=O)[C@H](Cc2ccc(-c3ccccc3)cc2)NC(=O)[C@H](C(C)C)NC(=O)[C@H](Cc2c[nH]c3ccccc23)NC(=O)[C@H](CC(=O)O)NC(=O)[C@H](Cc2ccc(OCC(=O)O)cc2)NC(=O)[C@H](Cc2ccncc2)NC(=O)CSC[C@@H](C(=O)N[C@@H](C)C(N)=O)NC(=O)[C@H]([C@@H](C)O)NC(=O)[C@H](C(C)C)NC(=O)[C@H](CC2CCCCC2)NC(=O)[C@H](CCN)NC(=O)[C@@H](CC2CCCCC2)NC(=O)[C@H](CCCN)NC1=O` [Compound 1628] ({CH2CO}-[4Pal]Y(Carboxymethyl)DWV[Bip][aIle][Orn][dCha][Dab][Cha]VTCA-NH2; thioether N-14), the half-inhibitory concentration (IC50) stood at 24.9 nM.

Take `CC(C)C[C@H]1NC(=O)[C@H](CCCN)NC(=O)[C@H](C(C)C)NC(=O)[C@H](Cc2ccc(-c3ccccc3)cc2)NC(=O)[C@H](C(C)C)NC(=O)[C@H](Cc2cccc(Cl)c2)NC(=O)[C@H](CC(=O)O)NC(=O)[C@H](Cc2ccc(OCC(=O)O)cc2)NC(=O)[C@H](Cc2ccncc2)NC(=O)CSC[C@@H](C(=O)N[C@@H](C)C(N)=O)NC(=O)[C@H]([C@@H](C)O)NC(=O)[C@H](C(C)C)NC(=O)[C@H](CC2CCCCC2)NC(=O)[C@H](CCN)NC1=O` [Compound 1575]: the IC50 is 16.6 nM. As to `C#CCOc1ccc(C[C@@H]2NC(=O)[C@H](Cc3cccc(C)c3)NC(=O)[C@H](CC(=O)O)NC(=O)[C@H](Cc3ccc(OCC(=O)O)cc3)NC(=O)[C@H](CCC)NC(=O)CSC[C@@H](C(=O)N[C@@H](CCN)C(N)=O)NC(=O)[C@H](CCC(=O)O)NC(=O)[C@H](C(C)C)NC(=O)[C@H](CC3CCCCC3)NC(=O)[C@H](CCN)NC(=O)[C@@H](CC(C)C)NC(=O)[C@H](CCCN)NC(=O)[C@H](Cc3ccc(OCC(=O)O)cc3)NC(=O)[C@H](Cc3ccc(-c4ccccc4)cc3)NC2=O)cc1` [Compound 1832] ({CH2CO}-[Nva]Y(Carboxymethyl)D[Phe(3-Me)]Y(Propargyl)[Bip]Y(Carboxymethyl)[Orn][dL][Dab][Cha]VEC[Dab]-NH2; thioether N-14), the IC50 came to 2.6 nM.

As to `CC(C)C[C@@H]1NC(=O)[C@H](Cc2c[nH]c3ccccc23)NC(=O)[C@H](CC(=O)O)NC(=O)[C@H](Cc2ccc(O)cc2)NC(=O)[C@H](Cc2ccccc2)NC(=O)CSC[C@@H](C(=O)N[C@@H](C)C(N)=O)NC(=O)[C@H](CO)NC(=O)[C@H](C(C)C)NC(=O)[C@H](CC(C)C)NC(=O)[C@H](CCN)NC(=O)[C@@H](CC(C)C)NC(=O)[C@H](CCCN)NC(=O)[C@H](C(C)C)NC(=O)[C@H](Cc2ccc(-c3ccccc3)cc2)NC1=O` [Compound 1069] ({CH2CO}-FYDWL[Bip]V[Orn][dL][Dab]LVSCA-NH2; thioether N-14), the IC50 stood at 13.9 nM.

For the molecule `COc1cccc(C[C@@H]2NC(=O)[C@H](CC(=O)O)NC(=O)[C@H](Cc3ccc(OCC(=O)O)cc3)NC(=O)[C@H](Cc3cccnc3)NC(=O)CSC[C@@H](C(=O)N[C@@H](C)C(N)=O)NC(=O)[C@H]([C@@H](C)O)NC(=O)[C@H](C(C)C)NC(=O)[C@H](CC3CCCCC3)NC(=O)[C@H](CCN)NC(=O)[C@@H](CC(C)C)NC(=O)[C@H](CCCN)NC(=O)[C@H](CCC(=O)O)NC(=O)[C@H](Cc3ccc(-c4ccccc4)cc3)NC(=O)[C@H](C(C)C)NC2=O)c1` [Compound 1545], the half-inhibitory concentration (IC50) amounted to 17.8 nM.

For the molecule `CC[C@H](C)[C@@H]1NC(=O)[C@H](Cc2ccc(-c3ccccc3)cc2)NC(=O)[C@H](C(C)C)NC(=O)[C@H](Cc2c[nH]c3ccccc23)NC(=O)[C@H](CC(=O)O)NC(=O)[C@H](Cc2ccc(O)cc2)NC(=O)[C@H](CC(N)=O)NC(=O)CSC[C@@H](C(=O)NCC(N)=O)NC(=O)[C@H](CO)NC(=O)[C@H](C(C)C)NC(=O)[C@H](CC(C)C)NC(=O)[C@H](CCN)NC(=O)[C@@H](CC(C)C)NC(=O)[C@H](CCN)NC1=O` [Compound 1123] ({CH2CO}-NYDWV[Bip]I[Dab][dL][Dab]LVSCG-NH2; thioether N-14), the IC50 is 14.8 nM. In the case of `Cc1cccc(C[C@@H]2NC(=O)[C@H](CC(=O)O)NC(=O)[C@H](Cc3ccc(OCC(=O)O)cc3)NC(=O)[C@H](Cc3ccc(OCC(=O)O)cc3)NC(=O)CSC[C@@H](C(N)=O)NC(=O)[C@H](CO)NC(=O)[C@H](C(C)C)NC(=O)[C@H](CC(C)C)NC(=O)[C@H](CCN)NC(=O)[C@@H](CC(C)C)NC(=O)[C@H](CCCN)NC(=O)[C@H](CCCNC(N)=O)NC(=O)[C@H](Cc3ccc(-c4ccccc4)cc3)NC(=O)[C@H](CC(C)C)NC2=O)c1` [Compound 1656] ({CH2CO}-Y(Carboxymethyl)Y(Carboxymethyl)D[Phe(3-Me)]L[Bip][Cit][Orn][dL][Dab]LVSC-NH2; thioether N-14) it was 36.4 nM; in that of `CC(C)C[C@H]1NC(=O)[C@H](CCCN)NC(=O)[C@H](CCCNC(N)=O)NC(=O)[C@H](Cc2ccc(-c3ccccc3)cc2)NC(=O)[C@H](C(C)C)NC(=O)[C@H](Cc2c[nH]c3ccccc23)NC(=O)[C@H](CC(=O)O)NC(=O)[C@H](Cc2ccc(OCC(=O)O)cc2)NC(=O)[C@H](CN)NC(=O)CSC[C@@H](C(=O)N[C@@H](C)C(N)=O)NC(=O)[C@H]([C@@H](C)O)NC(=O)[C@H](C(C)C)NC(=O)[C@H](Cc2ccc(C#N)cc2)NC(=O)[C@H](CCN)NC1=O` [Compound 1366] ({CH2CO}-[Dap]Y(Carboxymethyl)DWV[Bip][Cit][Orn][dL][Dab][Phe(4-CN)]VTCA-NH2; thioether N-14), 858 nM. In the case of `CCNC(=O)[C@H](C)NC(=O)[C@@H]1CSCC(=O)N[C@@H](Cc2ccncc2)C(=O)N[C@@H](Cc2ccc(C(=O)O)cc2)C(=O)N[C@@H](CC(=O)O)C(=O)N[C@@H](Cc2cccc(C)c2)C(=O)N[C@@H](C(C)C)C(=O)N[C@@H](Cc2ccc(-c3ccccc3)cc2)C(=O)N[C@@H]([C@@H](C)CC)C(=O)N[C@@H](CCCN)C(=O)N[C@H](CC(C)C)C(=O)N[C@@H](CCN)C(=O)N[C@@H](CC2CCCCC2)C(=O)N[C@@H](C(C)C)C(=O)N[C@@H]([C@@H](C)O)C(=O)N1` [Compound 2004] it was 42.1 nM. As for `C#CC[C@H](NC(=O)[C@H](CCN)NC(=O)[C@@H]1CSCC(=O)N[C@@H](CN)C(=O)N[C@@H](Cc2ccc(OCC(=O)O)cc2)C(=O)N[C@@H](CC(=O)O)C(=O)N[C@@H](Cc2cccc(C)c2)C(=O)N[C@@H](C(C)C)C(=O)N[C@@H](Cc2ccc(-c3ccccc3)cc2)C(=O)N[C@@H](CCCNC(N)=O)C(=O)N[C@@H](CCCN)C(=O)N[C@H](CC(C)C)C(=O)N[C@@H](CCN)C(=O)N[C@@H](CC2CCCCC2)C(=O)N[C@@H](C(C)C)C(=O)N[C@@H]([C@@H](C)O)C(=O)N1)C(N)=O` [Compound 2261] ({CH2CO}-[Dap]Y(Carboxymethyl)D[Phe(3-Me)]V[Bip][Cit][Orn][dL][Dab][Cha]VTC[Dab][Pra]-NH2; thioether N-14), the figure is 16 nM.

On to `Cc1cccc(C[C@@H]2NC(=O)[C@H](CC(=O)O)NC(=O)[C@H](Cc3ccc(OCC(=O)O)cc3)NC(=O)[C@H](Cc3ccco3)NC(=O)CSC[C@@H](C(=O)N[C@@H](CCN)C(N)=O)NC(=O)[C@H](Cc3cnc[nH]3)NC(=O)[C@H](C(C)(C)O)NC(=O)[C@H](CC3CCCCC3)NC(=O)[C@H](CCN)NC(=O)[C@@H](CC(C)C)NC(=O)[C@H](CCCN)NC(=O)[C@H](Cc3ccc(OCC(=O)O)cc3)NC(=O)[C@H](Cc3ccc(-c4ccccc4)cc3)NC(=O)[C@H](Cc3ccc(OCC(=O)O)cc3)NC2=O)c1` [Compound 2646] ({CH2CO}-[Ala(2-furyl)]Y(Carboxymethyl)D[Phe(3-Me)]Y(Carboxymethyl)[Bip]Y(Carboxymethyl)[Orn][dL][Dab][Cha][Val(3-OH)]HC[Dab]-NH2; thioether N-14), for which the IC50 is 8.3 nM.

In general, IC50 refers to the concentration needed to halve the response being measured.
